From ChEMBL document CHEMBL3593201, “Isolation, Characterization, and Synthesis of the Barrettides: Disulfide-Containing Peptides from the Marine Sponge Geodia barretti” (J Nat Prod, 2015)
Converted amounts (≈) assume the structure as drawn. The source made the active and inactive calls. The calls are words filed in the database; no cut-off is given here. Peptide text beside a SMILES is read from it.

Assays:
Amphibalanus improvisus [1] = assay: Anti-fouling activity against Balanus improvisus barnacle larvae assessed as inhibition of settlement propensity at 6 uM incubated for 4 days; type: functional, organism-based
Amphibalanus improvisus [2] = assay: Toxicity against Balanus improvisus barnacle larvae assessed as number of dead larvae at 0.06 to 6 uM incubated for 24 hrs; type: organism-based; conditions: in vivo
Staphylococcus aureus [3] = assay: Antimicrobial activity against Staphylococcus aureus ATCC 29213 up to 80 uM; type: functional, organism-based
Amphibalanus improvisus [4] = assay: Anti-fouling activity against Balanus improvisus barnacle larvae assessed as settlement propensity at 6 uM incubated for 4 days (reference value: 64 +/- 8%); type: functional
Escherichia coli [5] = assay: Antimicrobial activity against Escherichia coli ATCC 25922 up to 80 uM; type: functional, organism-based
Amphibalanus improvisus [6] = assay: Anti-fouling activity against Balanus improvisus barnacle larvae assessed as inhibition of settlement propensity at 0.6 uM incubated for 4 days; type: functional, organism-based
Staphylococcus aureus [7] = assay: Antimicrobial activity against Staphylococcus aureus ATCC 29213; type: functional
Escherichia coli [8] = assay: Antimicrobial activity against Escherichia coli ATCC 25922; type: functional

Compound	inhibition (Amphibalanus improvisus [1])	Activity (Amphibalanus improvisus [2])	Activity (Staphylococcus aureus [3])	Activity (Amphibalanus improvisus [4])	Activity (Escherichia coli [5])	inhibition (Amphibalanus improvisus [6])	MIC (Staphylococcus aureus [7])	MIC (Escherichia coli [8])
[H][C@@]12CCCN1C(=O)[C@H](CC(C)C)NC(=O)[C@]1([H])CSSC[C@]([H])(NC(=O)[C@H](Cc3ccccc3)NC(=O)[C@@H](NC(=O)[C@@H]3CCCN3C(=O)[C@H](CO)NC(=O)[C@@H](NC(=O)[C@@H](N)CC(=O)O)C(C)C)CSSC[C@@H](C(=O)N[C@@H](CC(=O)O)C(=O)N[C@@H](C)C(=O)N[C@@H](CO)C(=O)N[C@@H](CCCNC(=N)N)C(=O)NCC(=O)N[C@H](C(=O)N[C@@H](CC(N)=O)C(=O)N3CCC[C@H]3C(=O)O)[C@@H](C)O)NC(=O)[C@H](CC(N)=O)NC(=O)[C@H](CC(=O)O)NC2=O)C(=O)N[C@@H](C(C)C)C(=O)N[C@@H](CCC(=O)O)C(=O)N[C@@H](CC(=O)O)C(=O)N[C@@H](CCC(=O)O)C(=O)N[C@@]([H])([C@@H](C)O)C(=O)N[C@@H](CO)C(=O)NCC(=O)N[C@@H](C)C(=O)N[C@@H](CCCCN)C(=O)N[C@@]([H])([C@@H](C)O)C(=O)N1 (HELM PEPTIDE1{D.V.S.P.C.F.C.V.E.D.E.T.S.G.A.K.T.C.L.P.D.N.C.D.A.S.R.G.T.N.P}$PEPTIDE1,PEPTIDE1,5:R3-23:R3|PEPTIDE1,PEPTIDE1,7:R3-18:R3$$$V2.0)	Active	Non-toxic	inactive	8%	inactive			
[H][C@@]12CCCN1C(=O)[C@H](C(C)C)NC(=O)[C@]1([H])CSSC[C@]([H])(NC(=O)[C@H](Cc3ccccc3)NC(=O)[C@@H](NC(=O)[C@@H]3CCCN3C(=O)[C@H](CO)NC(=O)[C@@H](NC(=O)[C@@H](N)CC(=O)O)C(C)C)CSSC[C@@H](C(=O)N[C@@H](CC(=O)O)C(=O)N[C@@H](C)C(=O)N[C@@H](CO)C(=O)N[C@@H](CCCNC(=N)N)C(=O)NCC(=O)N[C@H](C(=O)N[C@@H](CC(N)=O)C(=O)N3CCC[C@H]3C(=O)O)[C@@H](C)O)NC(=O)[C@H](CC(N)=O)NC(=O)[C@H](CC(=O)O)NC2=O)C(=O)N[C@@H](C(C)C)C(=O)N[C@@H](CCC(=O)O)C(=O)N[C@@H](CC(=O)O)C(=O)N[C@@H](CCC(=O)O)C(=O)N[C@@]([H])([C@@H](C)O)C(=O)N[C@@H](CO)C(=O)NCC(=O)N[C@@H](C)C(=O)N[C@@H](CCCCN)C(=O)N[C@@]([H])([C@@H](C)O)C(=O)N1 (HELM PEPTIDE1{D.V.S.P.C.F.C.V.E.D.E.T.S.G.A.K.T.C.V.P.D.N.C.D.A.S.R.G.T.N.P}$PEPTIDE1,PEPTIDE1,5:R3-23:R3|PEPTIDE1,PEPTIDE1,7:R3-18:R3$$$V2.0)	Active	Non-toxic	inactive	15%	inactive	Active		
CC[C@H](C)[C@H](NC(=O)[C@H](CCCCN)NC(=O)[C@H](CCC(=O)O)NC(=O)[C@H](CCCCN)NC(=O)[C@H](CO)NC(=O)[C@H](CCCCN)NC(=O)[C@H](CCCNC(=N)N)NC(=O)[C@H](Cc1ccccc1)NC(=O)[C@H](Cc1ccccc1)NC(=O)[C@H](CC(=O)O)NC(=O)CNC(=O)[C@H](CC(C)C)NC(=O)[C@@H](N)CC(C)C)C(=O)NCC(=O)N[C@@H](CCCCN)C(=O)N[C@@H](CCC(=O)O)C(=O)N[C@@H](Cc1ccccc1)C(=O)N[C@@H](CCCCN)C(=O)N[C@@H](CCCNC(=N)N)C(=O)N[C@H](C(=O)N[C@H](C(=O)N[C@@H](CCC(N)=O)C(=O)N[C@@H](CCCNC(=N)N)C(=O)N[C@H](C(=O)N[C@@H](CCCCN)C(=O)N[C@@H](CC(=O)O)C(=O)N[C@@H](Cc1ccccc1)C(=O)N[C@@H](CC(C)C)C(=O)N[C@@H](CCCNC(=N)N)C(=O)N[C@@H](CC(N)=O)C(=O)N[C@@H](CC(C)C)C(=O)N[C@H](C(=O)N1CCC[C@H]1C(=O)N[C@@H](CCCNC(=N)N)C(=O)N[C@H](C(=O)N[C@@H](CCC(=O)O)C(=O)N[C@@H](CO)C(=O)O)[C@@H](C)O)C(C)C)[C@@H](C)CC)C(C)C)[C@@H](C)CC [CATHELICIDIN]							1 µM (≈ 4.49 µg/mL)	1 µM (≈ 4.49 µg/mL)
